Each structure is given as a SMILES string.

For experiment [1], the system named is brain tissue. Briefly: Cytokine and chemokine levels in mice brain at 21 days after CLP (Luminex). As to conditions: CLP vs control × MnTBAP vs placebo. Type of experiment: in vivo, mouse. As for the experimental part: (§1) We used peritonitis induced by CLP as a model of sepsis (Rittirsch et al., 2009). Briefly, animals were anesthetized with ketamine (Imalgene® 1000 100 mg/kg, Merial, France) and Xylazine (Rompun® 2% 20 mg/kg, Bayer, Germany) prior to surgery. After laparotomy, caecum was ligatured at the distal third with a 4.0 suture and the distal part was perforated twice with a 21 Gauge needle.
(§2) MnTBAP is commercially available: it is for example manufactured by Sigma-Aldrich, Calbiochem, etc. For use it is dissolved following the guidance provided by the manufacturer.
Brain: snap frozen brain samples (n=6 per condition and per time point) were thawed, lysed by mechanical agitation (lysing matrix), and supernatant was aliquoted and stored at −80° C. until analysis.
These samples were processed for Luminex® multiple cytokine and chemokine analysis (Bio-Plex® Pro™ Mouse Cytokine Standard 23-flex, Group I and Standard 9-flex, Group II). Fifty microlitres of sample was analyzed on the Bio-flex system (Bio-Rad) in accordance with the manufacturers instructions. Data analyses for all assays were performed using the Bio-flex Manager software. […] Normalization was done by weight of the frozen brain sample.
The data represent the level of protein expression in pg mg^−1 of brain tissue using Luminex®. Control mice were non-operated but anesthetized. Median values of n=5 mice per group are represented. […]

In experiment [2] the test system is Cd11b+ microglial cells. Nature of the experiment: Gene expression of microglial immuno-phenotype markers (RT-qPCR) in Cd11b+ microglial cells sorted from brain at 21 days. Type of experiment: in vivo, mouse. As for the experimental part: as §1, §2
Brains were collected for cell dissociation and Cdllb-positive cell separation using a magnetic coupled antibody (MACS® Technology), according to the manufacturer's protocol (Miltenyi Biotec, Bergisch Gladbach, Germany) and as previously described (Schang et al., 2014). In brief, mice were intracardially perfused with NaCl 0,9%. The brains are then dissociated using the Neural Tissue Dissociation Kit containing trypsin and the gentleMACS Octo Dissociator with Heaters. From the resulting brain homogenate, cd11 b-positive cells were enriched using the anti-cd11 b MicroBeads. After elution the isolated cells were centrifuged for 5 min at 200G and conserved at −80° C.
Total RNA was isolated from cells using the RNAeasy Micro kit (Qiagen), and reverse-transcribed using Superscript® III Reverse transcriptase (Invitrogen). Real-time quantitative PCR was performed in duplicate for each sample using Power Sybr Green PCR Master Mix (Applied Biosystems) and the rate of dye incorporation was monitored using the StepOne™ Plus RealTime PCR system (Applied Biosystems). Data were analyzed by StepOne Plus RT PCR software v2.1 and Microsoft excel. Amplification specificity was assessed with a melting curve analysis. TBP transcript levels were used for normalisation of each target (=ΔCT). Real-time PCR CT values were analyzed using the 2^−(ΔCt) method to calculate the fold expression (Schmittgen et al., 2008). The data are presented as relative mRNA units with respect to control group (expressed as fold over control value). Primer sequences available upon request.
We have adopted nomenclature consistent with previous work in microglia (Chhor et al., 2013). We distinguished 3 types of phenotypes according to the mRNA expression levels of markers listed in brackets: pro-inflammatory phentoype (Ptgs2, Cd32, Cd86), alternative phenotype (Lgals3, Igf1 and CD206) and immunoregulatory phenotype (II1rn, II4ra, Socs3).
Quantification of pro-inflammatory markers (CD32, CD86 and Ptgs2 mRNA), anti-inflammatory markers (Lgals3, IGF1 and CD206 mRNA) and immuno-regulator markers (IL1-RA, IL4-Rα and SOCS3 mRNA) by RT-qPCR in Cd11b+ microglial cells magnetically sorted from the brain at 21 days. Control mice were non-operated but anesthetized. The data shown represent median values of n=5 mice per group. Two-way analyses of variance (ANOVAs) CLP vs Control×MnTBAP vs Placebo were performed. […] Data are represented as fold changes using the 2-ΔΔCT method.
(In general: Quantitative PCR measures a nucleic acid by following its amplification.)

For `O=C(O)c1ccc(/C2=C3\C=CC(=N3)/C(c3ccc(C(=O)O)cc3)=c3/cc/c4[n]3[Mn]([Cl])[n]3c2ccc3/C(c2ccc(C(=O)O)cc2)=C2/C=CC(=N2)\C=4c2ccc(C(=O)O)cc2)cc1` [MnTBAP, Manganese (III) tetrakis (4-benzoic acid)porphyrin chloride], the “measured brain tissue cytokines, two-way ANOVA” value in experiment [1] is “did not show any CLP vs control×MnTBAP vs placebo interaction, or difference linked to condition or treatment between the groups”. In experiment [2] (CLP-MnTBAP group vs CLP-placebo group, p=0.01, did not differ from Control-placebo), the “IL1β expression in microglial cells” value is listed as “significantly lower”. Besides, in experiment [2] (CLP-MnTBAP group vs CLP-placebo group, p=0.023, did not differ from Control-placebo), the “Lgals3 (M2a) gene expression in microglial cells” value is on record as “significantly lower”. In addition, the microglial immunophenotype result in experiment [2] (MnTBAP alone (control mice)) is on record as “did not alter”. For the same molecule, in experiment [2] (septic mice), the microglial immunoprofile result is “shifts microglial immunoprofile from a neurotoxic toward a neuroprotective phenotype”. In experiment [2] (septic mice, MnTBAP compared to the placebo group, p=0.026, did not differ from Control-placebo), the “Ptgs2 (M1 marker) transcripts in microglial cells” value is listed as “significantly reduced”. Further, the “IL1RA (M2b marker) transcripts in microglial cells” value in experiment [2] (septic mice, MnTBAP compared to the placebo group, p=0.047, did not differ from Control-placebo) is on record as “significantly reduced”.

Values taken from patent US20240148749A1 (priority 2021, published 2024).
